Data on one molecule can be found in patent US6613538B2, “Detection of HLA-G” (priority 1999, dated 2003).

The structures appear in SMILES notation.

Format in all cases: cell-based, human
The test system of experiment [1] is JEG-3 choriocarcinoma cells. Description: HLA-G mRNA by quantitative RT-PCR after progesterone treatment. As to the method: (§1) Methods. Purified cytotrophoblasts were prepared from first trimester placental tissue by standard techniques. JEG-3 choriocarcinoma cells were cultured in RPMI-1640 medium containing 10% FCS for three days. The cells were then treated with various doses of progesterone for 24 hours. Cell lysates and conditioned media were prepared for ELISA and total RNA was extracted for PCR. The ELISA was conducted according to the invention, using the 3C/G4 and 2C/C8 anti-HLA-G monoclonal antibodies. HLA-G protein, purified by immunoaffinity columns from first trimester placental tissue, was used as standard. The sensitivity of the ELISA was 20 ng/ml and assay variation was less than 10%. Quantitative RT-PCR was performed by using specific primers for HLA-G. Results were assessed for statistical significance using one-way analysis of variance.

The test system of the next experiment is cytotrophoblast cells. The description is as above. As to the method: as §1
Experiment [2] deals with JEG-3 choriocarcinoma cells. Description: HLA-G protein by ELISA after progesterone treatment. As to conditions: progesterone doses from 10 ng/ml, 24 hours. As to the method:
as §1
A general note: ELISA stands for enzyme-linked immunosorbent assay.

For experiment [3], the system named is cytotrophoblasts (placenta cell culture). Described as above. The settings on record: progesterone 100 ng and 1000 ng/ml, 24 hours. The procedure:
as §1

For the molecule `CC(=O)[C@H]1CC[C@H]2[C@@H]3CCC4=CC(=O)CC[C@]4(C)[C@H]3CC[C@]12C` [progesterone], the “HLA-G mRNA levels in JEG-3 cells” value in experiment [1] (after progesterone treatment, RT-PCR) was “increase of HLA-G mRNA levels”. The “HLA-G mRNA levels at 1000 ng/ml versus 10 and 100 ng/ml” value in experiment [1] (progesterone 1000 ng/ml, cell type not specified in the sentence (JEG-3 and cytotrophoblast cells tested)) is given as “significantly higher HLA-G mRNA levels”. For the same molecule, the “HLA-G mRNA levels in cytotrophoblast cells” value with cytotrophoblast cells was “increase of HLA-G mRNA levels”. Also, in experiment [2], the “HLA-G concentration in JEG-3 cell lysate” value is given as “significant increase” and the “HLA-G concentration in JEG-3 conditioned medium” value is “significant increase”. The “HLA-G protein in placenta cell culture” value in experiment [3] is “significantly increased”.
